Data published in patent publication US6525001B1, “Substituted pyrimidine and pyridine herbicides” (Mid-American Commercialization Corporation, priority 1997, dated 2003).

Columns and labels:
Format in all cases: in vivo
[1] = test system: surinam grass (Brachiaria decumbens); assay: Test E pre-/postemergence/post directed; design: key: 0 is no effect; 100 is complete control; conditions: PREEMERGENCE
From the text: (§1) Seeds, tubers, or plant parts of alexandergrass (Brachiaria plantaginea), annual bluegrass (Poa annua), arrowleaf sida (Sida rhombifolia), barnyardgrass (Echinochloa crus-galli), bermudagrass (Cynodon dactylon), citrus (Citrus sinensis), common chickweed (Stellaria media), common purslane (Portulaca oleracea), common ragweed (Ambrosia elatior), common groundsel (Senecio vulgaris), dallisgrass (Paspalum dilatatum), goosegrass (Eleusine indica), green foxtail (Setaria viridis), guineagrass (Panicum maximum), itchgrass (Rottboellia exaltata), johnson grass (Sorghum halepense), kochia (Kochia scoparia), large crabgrass (Digitaria sanguinalis), leafy spurge (Euphorbia esula), pitted morningglory (Ipomoea lacunosa), purple nutsedge (Cyperus rotundus), quackgrass (Agropyron repens), Russian thistle (Salsola kali), sandbur (Cenchrus echinatus), sourgrass (Trichachne insularis), Spanishneedles (Bidens bipinnata), sugarcane (Saccharum officinarum), surinam grass (Brachiaria decumbens) and tall mallow (Malva sylvestris) were planted into greenhouse pots of flats containing greenhouse planting medium. Plant species were grown grown in separate pots or individual compartments. Preemergence applications were made within one day of planting the seed or plant part. Postemergence applications were applied when the plants were in the two to four leaf stage (three to twenty cm).
(§2) Test chemicals were formulated in a non-phytotoxic solvent mixture which included a surfactant and applied preemergence to the soil surface, postemergence to the plants or as a post directed spray to plants and soil at the base of the target species. Untreated control plants and treated plants were placed in the greenhouse and visually evaluated for injury 13 to 21 days after herbicide application. Plant response ratings, summarized in Table E, are based on a 0 to 100 scale where 0 is no injury and 100 is complete control. A dash (−) response means no test result.

[2] = test system: large crabgrass (Digitaria sanguinalis); assay: Test E pre-/postemergence/post directed; design: key: 0 is no effect; 100 is complete control; conditions: PREEMERGENCE
From the text: as §1, §2

[3] = test system: tall mallow (Malva sylvestris); assay: Test E pre-/postemergence/post directed; design: key: 0 is no effect; 100 is complete control; conditions: PREEMERGENCE
From the text: as §1, §2

[4] = test system: sourgrass (Trichachne insularis); assay: Test E pre-/postemergence/post directed; design: key: 0 is no effect; 100 is complete control
From the text: as §1, §2

[5] = test system: common purslane (Portulaca oleracea); assay: Test E pre-/postemergence/post directed; design: key: 0 is no effect; 100 is complete control
From the text: as §1, §2

[6] = test system: common groundsel (Senecio vulgaris); assay: Test E pre-/postemergence/post directed; design: key: 0 is no effect; 100 is complete control; conditions: PREEMERGENCE
From the text: as §1, §2

[7] = test system: bedstraw (Galium aparine); assay: Test B pre-/postemergence; design: key: 0 is no effect; 10 is complete control
Outline: (§3)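 Scored visually 0 (none) to 10 (complete control) against untreated plants after twelve to sixteen greenhouse days. Test chemicals, formulated in surfactant-containing non-phytotoxic solvent, applied to soil after planting and, separately, onto 1- to 4-leaf (2–18 cm) plants.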

rape (Brassica napus) = assay: Test B pre-/postemergence; design: key: 0 is no effect; 10 is complete control
Outline: as §3

rice (Oryza sativa) = assay: Test B flood test
Outline: (§4)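 Flood test on plants grown to the 2-leaf stage; treated plants kept in greenhouse twelve to sixteen days, then visually rated against controls on a 0 (no effect) to 10 (complete control) scale.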

[8] = test system: bamyardgrass (Echinochloa crus-galli); assay: Test B flood test
Outline: as §4

[9] = test system: smallflower flatsedge (Cyperus difformis); assay: Test B flood test
Outline: as §4

[10] = test system: duck salad (Heteranthera limosa); assay: Test B flood test
Outline: as §4

[11] = test system: lambsquarters (Chenopodium album); assay: Test C; design: key: 0 was no effect; 100 was complete control; conditions: PREEMERGENCE
[12] = Rate 250 g/ha, Postemergence (so in the source)
[13] = Rate 62 g/ha, Postemergence (flood test)
[14] = Rate 125 g/ha, Postemergence section (flood test species)
[15] = Rate 250 g/ha, Postemergence (flood test species)
[16] = Rate 125 g/ha, Postemergence, flood test

Cc1cnc(-n2ccc(C(F)(F)F)n2)nc1Cc1cccc(OC(F)(F)F)c1 [Compound 42] was tested, and the “Plant response rating, Surinam grass” value ([1]; Rate 125 g/ha) was 100, the “Plant response rating, Surinam grass” value ([1]; Rate 250 g/ha) was 100 and the “Plant response rating, Large crabgrass” value ([2]; Rate 125 g/ha) was 100. For the same compound, the “Plant response rating, Large crabgrass” value ([2]; Rate 250 g/ha) was 100, the “Plant response rating, Tall Mallow” value ([3]; Rate 32 g/ha) was 98 and the “Plant response rating, Tall Mallow” value ([3]; Rate 64 g/ha) was 98. The “Plant response rating, Tall Mallow” value ([3]; Rate 125 g/ha) was 98, the “Plant response rating, Tall Mallow” value ([3]; Rate 250 g/ha) was 100 and the “Plant response rating, Sourgrass” value ([4]; PREEMERGENCE, Rate 32 g/ha) was 100. For the same compound, the “Plant response rating, Sourgrass” value ([4]; PREEMERGENCE, Rate 64 g/ha) was 100, the “Plant response rating, Sourgrass” value ([4]; PREEMERGENCE, Rate 125 g/ha) was 100 and the “Plant response rating, Sourgrass” value ([4]; PREEMERGENCE, Rate 250 g/ha) was 100. The “Plant response rating, Com. purslane” value ([5]; PREEMERGENCE, Rate 32 g/ha) was 100, the “Plant response rating, Com. purslane” value ([5]; PREEMERGENCE, Rate 64 g/ha) was 100 and the “Plant response rating, Com. purslane” value ([5]; PREEMERGENCE, Rate 125 g/ha) was 100. For the same compound, the “Plant response rating, Com. purslane” value ([5]; PREEMERGENCE, Rate 250 g/ha) was 100, the “Plant response rating, Com. groundsel” value ([6]; Rate 64 g/ha) was 100 and the “Plant response rating, Com. groundsel” value ([6]; Rate 125 g/ha) was 100. For the same compound, the “Plant response rating, Com. groundsel” value ([6]; Rate 250 g/ha) was 100, the “Plant response rating, Bedstraw” value ([7]; Rate 62 g/ha, Postemergence) was 9 and the “Bedstraw plant response rating” value ([7]; Rate 62 g/ha, Preemergence) was 7. The “Plant response rating, Bedstraw” value ([7]; Rate 125 g/ha, Postemergence) was 9, the “Bedstraw plant response rating” value ([7]; Rate 125 g/ha, Preemergence) was 8 and the “Plant response rating, Bedstraw” value [7, 12] was 8. The “Plant response rating, Rape” value (rape (Brassica napus); Rate 62 g/ha, Postemergence) was 10, the “Rape plant response rating” value (rape (Brassica napus); Rate 62 g/ha, Preemergence) was 7 and the “Rape plant response rating” value (rape (Brassica napus); Rate 125 g/ha, Postemergence) was 10. The “Rape plant response rating” value (rape (Brassica napus); Rate 125 g/ha, Preemergence) was 10, the “Plant response rating, Rape” value (rape (Brassica napus); Rate 250 g/ha, Postemergence) was 10 and the “Plant response rating, Rape” value (rape (Brassica napus); [12]) was 10. The “Plant response rating, Rice” value (rice (Oryza sativa); [13]) was 4, the “Rice plant response rating” value (rice (Oryza sativa); [14]) was 6 and the “Plant response rating, Rice” value (rice (Oryza sativa); [15]) was 6. For the same compound, the “Plant response rating, Barnyardgrass” value [8, 13] was 4, the “Plant response rating, Barnyardgrass” value [8, 16] was 4 and the “Plant response rating, Barnyardgrass” value [8, 15] was 5. The “Plant response rating, S. Flatsedge” value [9, 13] was 9, the “S. Flatsedge plant response rating” value [9, 14] was 9 and the “Plant response rating, S. Flatsedge” value [9, 15] was 9. For the same compound, the “Plant response rating, Ducksalad” value [10, 13] was 1, the “Plant response rating, Ducksalad” value [10, 16] was 8 and the “Plant response rating, Ducksalad” value [10, 15] was 8. For the same compound, the “Plant response rating, Lambsquarters” value ([11]; Rate 35 g/ha) was 85, the “Plant response rating, Lambsquarters” value ([11]; Rate 70 g/ha) was 100 and the “Plant response rating, Lambsquarters” value ([11]; Rate 140 g/ha) was 100.

With Cc1cnc(-c2ccc(C(F)(F)F)cc2)nc1Cc1cccc(OC(F)(F)F)c1 [Compound 15] the “Plant response rating, Surinam grass” value ([1]; Rate 125 g/ha) was 100, the “Plant response rating, Surinam grass” value ([1]; Rate 250 g/ha) was 100 and the “Plant response rating, Large crabgrass” value ([2]; Rate 64 g/ha) was 100. For the same compound, the “Plant response rating, Large crabgrass” value ([2]; Rate 125 g/ha) was 100, the “Plant response rating, Large crabgrass” value ([2]; Rate 250 g/ha) was 100 and the “Plant response rating, Tall Mallow” value ([3]; Rate 32 g/ha) was 98. The “Plant response rating, Tall Mallow” value ([3]; Rate 64 g/ha) was 100, the “Plant response rating, Tall Mallow” value ([3]; Rate 125 g/ha) was 100 and the “Plant response rating, Tall Mallow” value ([3]; Rate 250 g/ha) was 98. For the same compound, the “Plant response rating, Sourgrass” value ([4]; POSTEMERGENCE, Rate 125 g/ha) was 20, the “Plant response rating, Sourgrass” value ([4]; POSTEMERGENCE, Rate 250 g/ha) was 25 and the “Plant response rating, Sourgrass” value ([4]; PREEMERGENCE, Rate 32 g/ha) was 100. The “Plant response rating, Sourgrass” value ([4]; PREEMERGENCE, Rate 64 g/ha) was 100, the “Plant response rating, Sourgrass” value ([4]; PREEMERGENCE, Rate 125 g/ha) was 100 and the “Plant response rating, Sourgrass” value ([4]; PREEMERGENCE, Rate 250 g/ha) was 100. The “Plant response rating, Com. purslane” value ([5]; POSTEMERGENCE, Rate 125 g/ha) was 75, the “Plant response rating, Com. purslane” value ([5]; POSTEMERGENCE, Rate 250 g/ha) was 80 and the “Plant response rating, Com. purslane” value ([5]; PREEMERGENCE, Rate 32 g/ha) was 100. For the same compound, the “Plant response rating, Com. purslane” value ([5]; PREEMERGENCE, Rate 64 g/ha) was 100, the “Plant response rating, Com. purslane” value ([5]; PREEMERGENCE, Rate 125 g/ha) was 100 and the “Plant response rating, Com. purslane” value ([5]; PREEMERGENCE, Rate 250 g/ha) was 100. For the same compound, the “Plant response rating, Com. groundsel” value ([6]; Rate 32 g/ha) was 100, the “Plant response rating, Com. groundsel” value ([6]; Rate 125 g/ha) was 100 and the “Plant response rating, Com. groundsel” value ([6]; Rate 250 g/ha) was 100. For the same compound, the “Plant response rating, Bedstraw” value ([7]; Rate 62 g/ha, Postemergence) was 9, the “Bedstraw plant response rating” value ([7]; Rate 62 g/ha, Preemergence) was 6 and the “Plant response rating, Bedstraw” value ([7]; Rate 125 g/ha, Postemergence) was 9. The “Bedstraw plant response rating” value ([7]; Rate 125 g/ha, Preemergence) was 8, the “Plant response rating, Bedstraw” value ([7]; Rate 250 g/ha, Postemergence) was 9 and the “Plant response rating, Bedstraw” value ([7]; Rate 250 g/ha, Preemergence) was 8. For the same compound, the “Plant response rating, Rape” value (rape (Brassica napus); Rate 62 g/ha, Postemergence) was 9, the “Rape plant response rating” value (rape (Brassica napus); Rate 62 g/ha, Preemergence) was 6 and the “Plant response rating, Rape” value (rape (Brassica napus); Rate 125 g/ha, Postemergence) was 9. For the same compound, the “Rape plant response rating” value (rape (Brassica napus); Rate 125 g/ha, Preemergence) was 9, the “Plant response rating, Rape” value (rape (Brassica napus); Rate 250 g/ha, Postemergence) was 9 and the “Plant response rating, Rape” value (rape (Brassica napus); Rate 250 g/ha, Preemergence) was 9. The “Plant response rating, Rice” value (rice (Oryza sativa); [13]) was 6, the “Plant response rating, Rice” value (rice (Oryza sativa); [16]) was 7 and the “Plant response rating, Rice” value (rice (Oryza sativa); [15]) was 7. For the same compound, the “Plant response rating, Barnyardgrass” value [8, 13] was 6, the “Plant response rating, Barnyardgrass” value [8, 16] was 8 and the “Plant response rating, Barnyardgrass” value [8, 15] was 9. The “Plant response rating, S. Flatsedge” value [9, 13] was 7, the “Plant response rating, S. Flatsedge” value [9, 16] was 8 and the “Plant response rating, S. Flatsedge” value [9, 15] was 9. The “Plant response rating, Ducksalad” value [10, 13] was 6, the “Plant response rating, Ducksalad” value [10, 16] was 6 and the “Plant response rating, Ducksalad” value [10, 15] was 7. The “Plant response rating, Lambsquarters” value ([11]; Rate 35 g/ha) was 0, the “Plant response rating, Lambsquarters” value ([11]; Rate 70 g/ha) was 20 and the “Plant response rating, Lambsquarters” value ([11]; Rate 140 g/ha) was 60.
